Experimental data: patent publication US20050090531A1, “MAG expression promoters” (priority 1999, published 2005)

Experiments:
Type in all cases: cell-based, rat
[1] = tested on: myelination of axon in co-cultured DRG nerve cells and Schwann cells; experiment: Myelination of axon in co-culture of DRG nerve cells and Schwann cells (Sudan Black B myelin staining), Experimental Example 1; conditions: 2 weeks of co-culture
Description: The preparation of nerve cell followed the method of Seung U. Kim (Experimental Protocols for Brain and Nerve—From cultured cell to functional analysis, ed. Katsuhiko Mikoshiba, Takao Shimizu, Yodosha). That is, an embryo was taken out from a 18-day pregnant female rat (Crj: CD(SD)IGS), from which dorsal spinal nerve root ganglia (hereinafter to be referred to as DRG) was removed under a stereoscopic microscope. DRG was treated with 0.25% trypsin and DNase I at 37° C. to disperse the cells. Adherent cells other than nerve cells were removed and the cells (5000 cells) were plated on a polylysine-coated plate. The cells were cultured in DMEM containing 10% FCS supplemented with the nerve growth factor (hereinafter to be referred to as NGF, 50 ng/ml) in a CO2 incubator. After 3 days of culture, the medium was changed to one containing Ara-C (1 μmol/l) to remove proliferative cells other than the nerve cells.
The preparation of Schwann cells followed the method of Ichiro Matsuoka (Springer Neuroscience Lab Manual 1, ed. Hiroshi Hatanaka, Springer-Verlag Tokyo). That is, the sciatic nerve of a neonatal rat (1 to 3 days postnatal, (Crj: CD(SD)IGS)) was removed under a stereoscopic microscope and adventitia was removed. By treating with trypsin/collagenase and DNase I in CMF-HBSS, the cells were dispersed. Using a culture flask, the cells were cultured in DMEM containing 10% FCS in a CO2 incubator. After culturing in a medium containing Ara-C, the cells were recovered and the cell suspension was treated successively with anti-Thy 1.1 and rabbit complement to remove cells other than the Schwann cells. Using a collagen-coated culture flask, the cells were cultured in DMEM containing 10% FCS in a CO2 incubator.
After 1 week from the start of the culture of DRG nerve cells, Schwann cells (20,000 cells) were plated on a plate in which DRG nerve cells had been cultured. he medium for co-culture was DMEM containing 2 μmol/l f forskolin, 50 ng/ml of NGF and 10% FCS. […]

[2] = tested on: myelin-related glycoprotein (MAG); experiment: MAG expression in DRG nerve cell/Schwann cell co-culture by immunoblotting, concentration dependence, Experimental Example 2; conditions: tested at 1, 3, 10 or 30 μmol/l, added every 2 days for 2 weeks; immunoblot, semi-quantitative
Description: According to the method described in Experimental Example 1, DRG nerve cells and Schwann cells were co-cultured. A DMSO solution containing the compound of the present invention (Y-128, 1, 3, 10 or 30 μmol/l) or ascorbic acid (50 μg/ml) as a positive control compound was added to the medium every 2 days for 2 weeks. As a negative control compound, the vehicle DMSO was added in the same manner. After 2 weeks from the start of the addition of the compound, the medium was removed and a sample buffer containing sodium dodecyl sulfate (SDS) was added to the well for solubilization of the cells.
A part thereof was separated by polyacrylamide gel electrophoresis and the migrated protein was transferred to a PVDF membrane. By immunoblotting and chemiluminescence, the objective protein was detected on an X ray film. A band detected at about 100 kDa migration was identified as a signal of myelin-related glycoprotein (MAG). The X ray film was scanned and the image was imported to a computer, and the expression of MAG was semi-quantitatively determined using an analysis software, ImageQuaNT (Molecular Dynamics). […] From the above-mentioned Experimental Example, it was clarified that the compound of the present invention (Y-128) increased the expression of MAG from the concentration of 3 μmol/l.

[3] = tested on: myelin-related glycoprotein (MAG); experiment: Time-course of MAG expression in DRG nerve cell/Schwann cell co-culture, Experimental Example 3; conditions: 10 μmol/ml, added every 2 days
Description: According to the method described in Experimental Example 1, DRG nerve cells and Schwann cells were co- cultured. A DMSO solution containing the compound of the present invention (Y-128, […]) or ascorbic acid (50 μg/ml) as a positive control compound was added to the medium every 2 days. The medium DMSO was added in the same manner as was the negative control compound. In the same manner as in Experimental Example 2, MAG was quantitatively determined before addition of the compounds and 3, 6, 9, 12, 15 and 18 days after addition.

Row | SMILES | effect on myelination of axon (conclusion) ([1]; 3 μmol/l) | wells in which axon was stained as deep as ascorbic acid addition group ([1]; 3 μmol/l, added every 2 or 3 days, Sudan Black B stain) | concentration from which the expression of MAG was increased [2] | time after addition at which the expression of MAG disappeared [3] | time-course changes of MAG expression compared with positive control ascorbic acid (50 μg/ml) ([3]; up to 18 days) | time after addition at which expression of MAG was increased maximally ([3]; measured 3, 6, 9, 12, 15 and 18 days after addition) | staining of axon (myelin stain) ([1]; 50 μg/ml, added every 2 or 3 days, 12 wells, Sudan Black B stain)
1 | Cc1ccc(-n2ccnc2)cc1[C@H](O)c1c(C)cc(C(=O)O)cc1C [Y-128, (S)-4-[α-hydroxy-5-(1-imidazolyl)-2-methylbenzyl]-3,5-dimethylbenzoic acid] | promoted myelination of axon | 5 wells out of 12 wells | ≥ 3 µmol/L | 18 days | the same as that by the positive control compound, ascorbic acid | 6 days and 12 days | –
2 | O=C1O[C@H]([C@@H](O)CO)C(O)=C1O [ascorbic acid, reference compound] | – | – | – | – | – | – | axon was stained deep in every well
